# Experimental data reported in US7598258B2, “Quinoline derivatives and quinazoline derivatives inhibiting autophosphorylation of macrophage colony stimulating factor receptor” (Kirin Beer Kabushiki Kaisha, priority 2002, dated 2009).
# Target: T1, Human KDR (Homo sapiens, UniProt P35968)
# T1 construct: expressed in transfected cells; host or cells: NIH3T3 cells (mouse fibroblasts)
# Experiment: Inhibition of KDR phosphorylation in human KDR-transfected NIH3T3 cells (ELISA)
# Format: cell-based
# Conditions: for Selection ratio (KDR phosphorylation IC50 / c-fms phosphorylation IC50): class 0-3; for IC50: human KDR-transfected NIH3T3 cells, VEGF 100 ng/ml, ELISA, read-out: KDR phosphorylation 50% inhibitory concentration (IC50)
# Description: Human KDR-transfected NIH3T3 cells (Sawano A et al., Cell Growth & Differentiation, 7, 213-221 (1996)) were cultured in a DMEM medium containing 10% fetal calf serum (purchased from GIBCO BRL) within a 5% carbon dioxide incubator until 50 to 70% confluent. The harvested cells were seeded into wells, containing the same medium, in a collagen type 1 coat 96-well flat-bottom plate in an amount of 1.5×10^4 per well, and cultured at 37° C. overnight. The medium was replaced with a 0.1% fetal calf serum-containing DMEM medium. The test compound dissolved in dimethyl sulfoxide was added to each well, and the cultivation was continued at 37° C. for additional one hr. A human recombinant vascular endothelial growth factor (hereinafter abbreviated to “VEGF”) was added to a final concentration of 100 ng/ml, followed by stimulation of cells at 37° C. for 2 min. The medium was removed, and the cells were washed with phosphate buffered saline (pH 7.4). A solubilization buffer (50 μl) (20 mM HEPES (pH 7.4), 150 mM NaCl, 0.2% Triton X-100, 10% glycerol, 5 mM sodium orthovanadylate, 5 mM disodium ethylenediaminetetraacetate, and 2 mM Na4P2O7) was then added thereto. The mixture was shaken at 4° C. for 2 hr to prepare a cell extract.
# Separately, phosphate buffered saline (50 μl, pH 7.4) containing 5 μg/ml of anti-phospho-tyrosine antibody (PY20; purchased from Transduction Laboratories) was added to a microplate for ELISA (Maxisorp; purchased from NUNC), followed by standing at 4° C. overnight to be immobilized on the wells. After washing of the plate, 300 μl of a blocking solution was added, followed by standing at room temperature for 2 hr to perform blocking. After washing, the whole cell extract was transferred and was allowed to stand at 4° C. overnight. After washing, an anti-KDR antibody (purchased from Santa Cruz Biotechnology) was allowed to react at room temperature for one hr. Further, after washing, a peroxidase-labeled anti-rabbit Ig antibody (purchased from Amersham) was allowed to react at room temperature for one hr. After washing, a chromophoric substrate for peroxidase (purchased from Sumitomo Bakelite Co., Ltd.) was added thereto to initiate a reaction. After a suitable level of color development, a reaction termination solution was added to stop the reaction, and the absorbance at 450 nm was measured with a microplate reader. The KDR phosphorylation activity for each well was determined by presuming the absorbance without the addition of the test compound and with the addition of VEGF to be 100% KDR phosphorylation activity and the absorbance without the addition of the test compound and VEGF to be 0% KDR phosphorylation activity. The concentration of the test compound was varied on several levels, the KDR phosphorylation inhibitory rate was determined for each case, and the concentration of the test compound necessary for inhibiting 50% of KDR phosphorylation (IC50) was calculated.
# T1 sequence (P35968 20-1356): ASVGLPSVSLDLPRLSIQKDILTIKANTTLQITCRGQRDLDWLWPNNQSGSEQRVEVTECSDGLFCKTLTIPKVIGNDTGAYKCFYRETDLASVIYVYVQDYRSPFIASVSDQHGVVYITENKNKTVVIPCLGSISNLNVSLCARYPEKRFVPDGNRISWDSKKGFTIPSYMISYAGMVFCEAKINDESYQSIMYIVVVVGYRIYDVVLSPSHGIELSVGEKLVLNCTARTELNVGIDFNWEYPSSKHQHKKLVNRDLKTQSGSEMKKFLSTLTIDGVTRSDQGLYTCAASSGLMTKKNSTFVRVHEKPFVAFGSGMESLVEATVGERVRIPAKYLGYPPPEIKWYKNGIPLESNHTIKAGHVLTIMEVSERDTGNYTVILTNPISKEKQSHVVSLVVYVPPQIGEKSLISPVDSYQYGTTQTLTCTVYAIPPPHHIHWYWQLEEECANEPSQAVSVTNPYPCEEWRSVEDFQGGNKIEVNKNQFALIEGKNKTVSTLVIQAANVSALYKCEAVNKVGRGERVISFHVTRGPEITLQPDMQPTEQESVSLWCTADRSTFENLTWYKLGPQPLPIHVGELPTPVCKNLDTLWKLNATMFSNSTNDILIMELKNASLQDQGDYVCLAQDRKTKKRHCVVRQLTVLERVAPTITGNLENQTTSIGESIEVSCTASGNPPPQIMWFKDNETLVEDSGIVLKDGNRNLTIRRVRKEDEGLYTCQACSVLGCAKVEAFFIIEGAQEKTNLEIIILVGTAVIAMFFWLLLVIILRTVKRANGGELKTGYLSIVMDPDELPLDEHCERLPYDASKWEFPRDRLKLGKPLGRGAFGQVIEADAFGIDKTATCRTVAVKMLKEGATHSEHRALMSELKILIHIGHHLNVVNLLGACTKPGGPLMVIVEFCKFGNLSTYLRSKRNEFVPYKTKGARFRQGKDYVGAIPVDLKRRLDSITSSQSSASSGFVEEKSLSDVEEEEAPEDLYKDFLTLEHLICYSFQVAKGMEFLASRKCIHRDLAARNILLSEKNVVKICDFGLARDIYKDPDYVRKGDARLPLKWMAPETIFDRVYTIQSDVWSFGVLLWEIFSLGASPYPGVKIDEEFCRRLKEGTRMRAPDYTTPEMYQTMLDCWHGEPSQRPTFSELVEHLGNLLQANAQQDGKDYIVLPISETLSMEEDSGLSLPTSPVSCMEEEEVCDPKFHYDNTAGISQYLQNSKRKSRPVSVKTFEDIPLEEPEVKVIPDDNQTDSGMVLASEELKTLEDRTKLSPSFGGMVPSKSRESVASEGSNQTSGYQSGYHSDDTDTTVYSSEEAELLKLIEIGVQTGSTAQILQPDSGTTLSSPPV
compound,measurement,value
"COc1cc2nccc(Oc3ccc(NC(=O)N[C@H](C)c4ccc(F)cc4)c(C(F)(F)F)c3)c2cc1OC [Example 21, N-[4-[(6,7-Dimethoxy-4-quinolyl)oxy]-2-(trifluoromethyl)phenyl]-N′-[(1R)-1-(4-fluorophenyl)ethyl]urea]",Selection ratio (KDR phosphorylation IC50 / c-fms phosphorylation IC50),0 (KDR phosphorylation 50% inhibitory concentration [μM]/c-fms phosphorylation 50% inhibitory concentration [μM] was less than 5)
same,IC50,2.1 nM
"COc1cc2nccc(Oc3ccc(NC(=O)NC(C)c4ccc(F)cc4)cc3OC)c2cc1OC (stereo not shown) [Example 22, N-{4-[(6,7-Dimethoxy-4-quinolyl)oxy]-3-methoxyphenyl}-N′-[1-(4-fluorophenyl)ethyl]urea]",Selection ratio (KDR phosphorylation IC50 / c-fms phosphorylation IC50),0 (KDR phosphorylation 50% inhibitory concentration [μM]/c-fms phosphorylation 50% inhibitory concentration [μM] was less than 5)
same,IC50,3.9 nM
"COc1cc2nccc(Oc3ccc(NC(=O)N[C@@H](C)c4ccc(F)cc4)cc3OC)c2cc1OC [Example 23, N-{4-[(6,7-Dimethoxy-4-quinolyl)oxy]-3-methoxyphenyl}-N′-[(1S)-1-(4-fluorophenyl)ethyl]urea]",Selection ratio (KDR phosphorylation IC50 / c-fms phosphorylation IC50),3 (when the value was 50 or more)
same,IC50,600 nM
"COc1cc2nccc(Oc3ccc(NC(=O)N[C@H](C)c4ccc(F)cc4)cc3OC)c2cc1OC [Example 24, N-{4-[(6,7-Dimethoxy-4-quinolyl)oxy]-3-methoxyphenyl}-N′-[(1R)-1-(4-fluorophenyl)ethyl]urea]",Selection ratio (KDR phosphorylation IC50 / c-fms phosphorylation IC50),0 (KDR phosphorylation 50% inhibitory concentration [μM]/c-fms phosphorylation 50% inhibitory concentration [μM] was less than 5)
same,IC50,2.4 nM
"COc1cc2nccc(Oc3ccc(NC(=O)NC(C)c4ccc(F)cc4)c(C)c3C)c2cc1OC (stereo not shown) [Example 25, N-{4-[(6,7-Dimethoxy-4-quinolyl)oxy]-2,3-dimethylphenyl}-N′-[1-(4-fluorophenyl)ethyl]urea]",Selection ratio (KDR phosphorylation IC50 / c-fms phosphorylation IC50),0 (KDR phosphorylation 50% inhibitory concentration [μM]/c-fms phosphorylation 50% inhibitory concentration [μM] was less than 5)
same,IC50,3.5 nM
"COc1cc2nccc(Oc3ccc(NC(=O)N[C@@H](C)c4ccc(F)cc4)c(C)c3C)c2cc1OC [Example 26, N-{4-[(6,7-Dimethoxy-4-quinolyl)oxy]-2,3-dimethylphenyl}-N′-[(1S)-1-(4-fluorophenyl)ethyl]urea]",Selection ratio (KDR phosphorylation IC50 / c-fms phosphorylation IC50),1 (when the value was 5 or more)
same,IC50,155 nM
"COc1cc2nccc(Oc3ccc(NC(=O)N[C@H](C)c4ccc(F)cc4)c(C)c3C)c2cc1OC [Example 27, N-{4-[(6,7-Dimethoxy-4-quinolyl)oxy]-2,3-dimethylphenyl}-N′-[(1R)-1-(4-fluorophenyl)ethyl]urea]",Selection ratio (KDR phosphorylation IC50 / c-fms phosphorylation IC50),0 (KDR phosphorylation 50% inhibitory concentration [μM]/c-fms phosphorylation 50% inhibitory concentration [μM] was less than 5)
same,IC50,2 nM
"COc1cc2nccc(Oc3ccc(NC(=O)NC(C)c4ccc(F)cc4)c(F)c3)c2cc1OC (stereo not shown) [Example 28, N-{4-[(6,7-Dimethoxy-4-quinolyl)oxy]-2-fluorophenyl}-N′-[1-(4-fluorophenyl)ethyl]urea]",Selection ratio (KDR phosphorylation IC50 / c-fms phosphorylation IC50),0 (KDR phosphorylation 50% inhibitory concentration [μM]/c-fms phosphorylation 50% inhibitory concentration [μM] was less than 5)
same,IC50,< 1 nM
"COc1cc2nccc(Oc3ccc(NC(=O)N[C@@H](C)c4ccc(F)cc4)c(F)c3)c2cc1OC [Example 29, N-{4-[(6,7-Dimethoxy-4-quinolyl)oxy]-2-fluorophenyl}-N′-[(1S)-1-(4-fluorophenyl)ethyl]urea]",Selection ratio (KDR phosphorylation IC50 / c-fms phosphorylation IC50),2 (when the value was 10 or more)
same,IC50,27.3 nM
"COc1cc2nccc(Oc3ccc(NC(=O)N[C@H](C)c4ccc(F)cc4)c(F)c3)c2cc1OC [Example 30, N-{4-[(6,7-Dimethoxy-4-quinolyl)oxy]-2-fluorophenyl}-N′-[(1R)-1-(4-fluorophenyl)ethyl]urea]",Selection ratio (KDR phosphorylation IC50 / c-fms phosphorylation IC50),0 (KDR phosphorylation 50% inhibitory concentration [μM]/c-fms phosphorylation 50% inhibitory concentration [μM] was less than 5)
same,IC50,< 1 nM
"COc1cc2nccc(Oc3ccc(NC(=O)NC(C)c4ccc(F)cc4)cc3F)c2cc1OC (stereo not shown) [Example 31, N-{4-[(6,7-Dimethoxy-4-quinolyl)oxy]-3-fluorophenyl}-N′-[1-(4-fluorophenyl)ethyl]urea]",Selection ratio (KDR phosphorylation IC50 / c-fms phosphorylation IC50),0 (KDR phosphorylation 50% inhibitory concentration [μM]/c-fms phosphorylation 50% inhibitory concentration [μM] was less than 5)
same,IC50,1 nM
"COc1cc2nccc(Oc3ccc(NC(=O)N[C@@H](C)c4ccc(F)cc4)cc3F)c2cc1OC [Example 32, N-{4-[(6,7-Dimethoxy-4-quinolyl)oxy]-3-fluorophenyl}-N′-[(1S)-1-(4-fluorophenyl)ethyl]urea]",Selection ratio (KDR phosphorylation IC50 / c-fms phosphorylation IC50),1 (when the value was 5 or more)
same,IC50,29.4 nM
"COc1cc2nccc(Oc3ccc(NC(=O)N[C@H](C)c4ccc(F)cc4)cc3F)c2cc1OC [Example 33, N-{4-[(6,7-Dimethoxy-4-quinolyl)oxy]-3-fluorophenyl}-N′-[(1R)-1-(4-fluorophenyl)ethyl]urea]",Selection ratio (KDR phosphorylation IC50 / c-fms phosphorylation IC50),0 (KDR phosphorylation 50% inhibitory concentration [μM]/c-fms phosphorylation 50% inhibitory concentration [μM] was less than 5)
same,IC50,< 1 nM
"COc1cc2nccc(Oc3ccc(NC(=O)N[C@@H](C)c4ccc(Br)cc4)cc3)c2cc1OC [Example 34, N-[(1S)-1-(4-Bromophenyl)ethyl]-N′-{4-[(6,7-dimethoxy-4-quinolyl)oxy]phenyl}urea]",Selection ratio (KDR phosphorylation IC50 / c-fms phosphorylation IC50),2 (when the value was 10 or more)
same,IC50,296 nM
"COc1cc2nccc(Oc3ccc(NC(=O)N[C@@H](C)c4ccccc4OC)cc3)c2cc1OC [Example 51, N-{4-[(6,7-Dimethoxy-4-quinolyl)oxy]phenyl}-N′-[(1S)-1-(2-methoxyphenyl)ethyl]urea]",Selection ratio (KDR phosphorylation IC50 / c-fms phosphorylation IC50),1 (when the value was 5 or more)
same,IC50,38.2 nM
"COc1cc2nccc(Oc3ccc(NC(=O)N[C@H](C)c4ccccc4OC)cc3)c2cc1OC [Example 52, N-{4-[(6,7-Dimethoxy-4-quinolyl)oxy]phenyl}-N′-[(1R)-1-(2-methoxyphenyl)ethyl]urea]",Selection ratio (KDR phosphorylation IC50 / c-fms phosphorylation IC50),0 (KDR phosphorylation 50% inhibitory concentration [μM]/c-fms phosphorylation 50% inhibitory concentration [μM] was less than 5)
same,IC50,7.2 nM
"COc1ccc([C@H](C)NC(=O)Nc2ccc(Oc3ccnc4cc(OC)c(OC)cc34)cc2)cc1 [Example 53, N-{4-[(6,7-Dimethoxy-4-quinolyl)oxy]phenyl}-N′-[(1S)-1-(4-methoxyphenyl)ethyl]urea]",Selection ratio (KDR phosphorylation IC50 / c-fms phosphorylation IC50),2 (when the value was 10 or more)
same,IC50,37.4 nM
"COc1ccc([C@@H](C)NC(=O)Nc2ccc(Oc3ccnc4cc(OC)c(OC)cc34)cc2)cc1 [Example 54, N-{4-[(6,7-Dimethoxy-4-quinolyl)oxy]phenyl}-N′-[(1R)-1-(4-methoxyphenyl)ethyl]urea]",Selection ratio (KDR phosphorylation IC50 / c-fms phosphorylation IC50),1 (when the value was 5 or more)
same,IC50,574 nM
"COc1cc2nccc(Oc3ccc(NC(=O)N[C@H](C)c4cccc(Br)c4)c(Cl)c3)c2cc1OC [Example 55, N-[(1R)-1-(3-Bromophenyl)ethyl]-N′-{2-chloro-4-[(6,7-dimethoxy-4-quinolyl)oxy]phenyl}urea]",Selection ratio (KDR phosphorylation IC50 / c-fms phosphorylation IC50),0 (KDR phosphorylation 50% inhibitory concentration [μM]/c-fms phosphorylation 50% inhibitory concentration [μM] was less than 5)
same,IC50,1.6 nM
"COc1cc2nccc(Oc3cc(C)c(NC(=O)N[C@H](C)c4cccc(Br)c4)cc3C)c2cc1OC [Example 56, N-[(1R)-1-(3-Bromophenyl)ethyl]-N′-{4-[(6,7-dimethoxy-4-quinolyl)oxy]-2,5-dimethylphenyl}urea]",Selection ratio (KDR phosphorylation IC50 / c-fms phosphorylation IC50),0 (KDR phosphorylation 50% inhibitory concentration [μM]/c-fms phosphorylation 50% inhibitory concentration [μM] was less than 5)
same,IC50,9.6 nM
